# Active and inactive are the calls of the source.
# Key:
# [1] = target: T1, Protein skinhead-1 (Caenorhabditis elegans, UniProt P34707); format: functional
# T1 sequence (P34707 whole entry): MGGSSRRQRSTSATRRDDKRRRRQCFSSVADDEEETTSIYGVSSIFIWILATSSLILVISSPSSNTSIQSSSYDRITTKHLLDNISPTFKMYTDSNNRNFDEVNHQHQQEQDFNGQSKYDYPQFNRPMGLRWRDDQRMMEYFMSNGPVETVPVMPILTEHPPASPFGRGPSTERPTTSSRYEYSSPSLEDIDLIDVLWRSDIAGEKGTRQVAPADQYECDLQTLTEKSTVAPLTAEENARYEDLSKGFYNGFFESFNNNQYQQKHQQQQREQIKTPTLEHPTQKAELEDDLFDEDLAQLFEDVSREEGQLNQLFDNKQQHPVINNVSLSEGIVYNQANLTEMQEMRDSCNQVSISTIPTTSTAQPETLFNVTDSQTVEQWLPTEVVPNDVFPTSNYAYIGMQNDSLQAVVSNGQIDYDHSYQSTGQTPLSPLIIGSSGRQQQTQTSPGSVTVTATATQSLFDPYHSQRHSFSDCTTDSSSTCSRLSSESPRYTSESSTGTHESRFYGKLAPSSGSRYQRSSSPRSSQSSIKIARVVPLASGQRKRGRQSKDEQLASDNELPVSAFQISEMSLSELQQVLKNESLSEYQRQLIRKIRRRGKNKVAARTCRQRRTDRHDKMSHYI
# [2] = Shn3 3'UTR reporter inhibitors, dose response, cell-based, Clone20 osteoblasts, firefly luciferase, cherry-picked (AID 624132); format: functional;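 further: firefly luciferase luminescence from reporter carrying the Shn3 3'UTR in osteoblasts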
# [3] = target: Paired box protein Pax-8 (Homo sapiens, UniProt Q06710); assay: inhibitors of PAX8-driven TPO luciferase reporter, dose response, RMG-I cells, cherry-pick (AID 687027); format: functional, cell-based;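 further: luciferase reporter driven by Pax8 target thyroperoxidase promoter measured by SteadyGlo luminescence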
# Chain of Paired box protein Pax-8 (Q06710 whole entry): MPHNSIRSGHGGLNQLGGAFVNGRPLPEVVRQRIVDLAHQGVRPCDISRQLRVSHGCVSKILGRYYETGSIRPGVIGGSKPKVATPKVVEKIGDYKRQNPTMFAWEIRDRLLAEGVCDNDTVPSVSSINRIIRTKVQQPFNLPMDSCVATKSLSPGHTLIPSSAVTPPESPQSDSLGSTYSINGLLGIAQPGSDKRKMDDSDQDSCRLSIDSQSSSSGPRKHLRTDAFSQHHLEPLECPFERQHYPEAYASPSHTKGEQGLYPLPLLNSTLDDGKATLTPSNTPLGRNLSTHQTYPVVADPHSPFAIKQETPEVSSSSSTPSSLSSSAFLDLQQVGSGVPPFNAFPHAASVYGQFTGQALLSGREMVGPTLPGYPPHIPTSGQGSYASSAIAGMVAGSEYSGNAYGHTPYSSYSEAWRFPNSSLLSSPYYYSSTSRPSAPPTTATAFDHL
# [4] = control 3'UTR Renilla luciferase suppression, dose response, counter-screen for Shn3 inhibitor project, cell-based, Clone20-Shn3RL, cherry-picked (AID 624133); format: functional
# [5] = target: T2, Short transient receptor potential channel 4 (Mus musculus, UniProt Q9QUQ5); assay: mouse TRPC4 channel activators, dose response, cell-based, HEK293 TRPC4/mu-opioid, Fluo-4 calcium (AID 434937); format: functional
# T2 sequence (Q9QUQ5 whole entry): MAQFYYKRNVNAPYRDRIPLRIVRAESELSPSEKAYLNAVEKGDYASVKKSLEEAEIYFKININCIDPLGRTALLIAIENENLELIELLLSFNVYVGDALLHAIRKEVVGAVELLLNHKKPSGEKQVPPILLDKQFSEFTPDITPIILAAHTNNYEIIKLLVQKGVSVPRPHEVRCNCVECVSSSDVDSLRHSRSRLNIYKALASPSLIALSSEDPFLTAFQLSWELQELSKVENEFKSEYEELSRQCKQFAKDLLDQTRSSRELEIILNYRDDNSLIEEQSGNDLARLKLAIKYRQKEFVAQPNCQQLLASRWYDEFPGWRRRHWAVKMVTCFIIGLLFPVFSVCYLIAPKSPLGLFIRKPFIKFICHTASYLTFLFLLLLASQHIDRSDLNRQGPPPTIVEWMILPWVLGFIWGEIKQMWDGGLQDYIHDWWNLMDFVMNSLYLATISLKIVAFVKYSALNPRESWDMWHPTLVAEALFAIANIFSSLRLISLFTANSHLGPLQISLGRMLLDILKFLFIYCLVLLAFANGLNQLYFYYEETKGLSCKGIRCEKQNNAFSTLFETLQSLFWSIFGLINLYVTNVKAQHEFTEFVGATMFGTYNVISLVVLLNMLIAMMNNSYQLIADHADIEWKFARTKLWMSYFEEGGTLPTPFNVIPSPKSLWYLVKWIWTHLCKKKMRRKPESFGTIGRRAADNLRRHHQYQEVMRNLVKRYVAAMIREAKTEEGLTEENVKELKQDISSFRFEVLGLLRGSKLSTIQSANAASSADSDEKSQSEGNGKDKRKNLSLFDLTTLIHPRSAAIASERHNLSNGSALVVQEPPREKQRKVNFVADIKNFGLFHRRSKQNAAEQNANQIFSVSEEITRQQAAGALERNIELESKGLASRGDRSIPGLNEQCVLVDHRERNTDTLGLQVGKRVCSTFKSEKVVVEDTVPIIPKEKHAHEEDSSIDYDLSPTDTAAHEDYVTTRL
# [6] = target: T3, DNA repair protein RAD52 homolog (Homo sapiens, UniProt P43351); format: functional, biochemical
# T3 sequence (P43351 whole entry): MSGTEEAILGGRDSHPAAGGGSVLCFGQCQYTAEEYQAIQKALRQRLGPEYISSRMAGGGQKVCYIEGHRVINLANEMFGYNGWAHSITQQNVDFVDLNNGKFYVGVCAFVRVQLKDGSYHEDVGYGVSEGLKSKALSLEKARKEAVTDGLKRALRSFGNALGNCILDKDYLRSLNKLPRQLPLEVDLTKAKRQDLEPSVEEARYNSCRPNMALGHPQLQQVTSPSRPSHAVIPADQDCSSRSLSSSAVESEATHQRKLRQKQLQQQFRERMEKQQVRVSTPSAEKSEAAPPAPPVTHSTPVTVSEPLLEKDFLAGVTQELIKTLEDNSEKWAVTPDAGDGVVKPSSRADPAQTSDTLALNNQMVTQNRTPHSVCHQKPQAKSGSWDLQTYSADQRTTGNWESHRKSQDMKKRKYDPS
# [7] = target: Cytochrome P450 2C9 (Homo sapiens, UniProt P11712)
# Chain of Cytochrome P450 2C9 (P11712 whole entry): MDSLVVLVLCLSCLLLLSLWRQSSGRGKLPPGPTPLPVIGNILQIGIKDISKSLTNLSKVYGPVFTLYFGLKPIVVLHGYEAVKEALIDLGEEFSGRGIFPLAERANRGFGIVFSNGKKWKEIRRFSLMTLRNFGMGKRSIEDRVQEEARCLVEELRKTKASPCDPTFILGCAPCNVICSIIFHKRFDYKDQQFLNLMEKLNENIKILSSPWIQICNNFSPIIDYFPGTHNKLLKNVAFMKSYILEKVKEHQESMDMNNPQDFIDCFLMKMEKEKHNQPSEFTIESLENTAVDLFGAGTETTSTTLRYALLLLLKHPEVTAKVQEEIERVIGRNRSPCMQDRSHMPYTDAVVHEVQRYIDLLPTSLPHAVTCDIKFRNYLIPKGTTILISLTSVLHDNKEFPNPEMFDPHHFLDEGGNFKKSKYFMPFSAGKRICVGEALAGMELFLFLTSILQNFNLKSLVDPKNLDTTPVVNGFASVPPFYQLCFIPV
# [8] = target: T4, Cytochrome P450 1A2 (Homo sapiens, UniProt P05177);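 further: PubChem cytochrome P450 panel assay, CYP1A2 panel member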
# T4 sequence (P05177 whole entry): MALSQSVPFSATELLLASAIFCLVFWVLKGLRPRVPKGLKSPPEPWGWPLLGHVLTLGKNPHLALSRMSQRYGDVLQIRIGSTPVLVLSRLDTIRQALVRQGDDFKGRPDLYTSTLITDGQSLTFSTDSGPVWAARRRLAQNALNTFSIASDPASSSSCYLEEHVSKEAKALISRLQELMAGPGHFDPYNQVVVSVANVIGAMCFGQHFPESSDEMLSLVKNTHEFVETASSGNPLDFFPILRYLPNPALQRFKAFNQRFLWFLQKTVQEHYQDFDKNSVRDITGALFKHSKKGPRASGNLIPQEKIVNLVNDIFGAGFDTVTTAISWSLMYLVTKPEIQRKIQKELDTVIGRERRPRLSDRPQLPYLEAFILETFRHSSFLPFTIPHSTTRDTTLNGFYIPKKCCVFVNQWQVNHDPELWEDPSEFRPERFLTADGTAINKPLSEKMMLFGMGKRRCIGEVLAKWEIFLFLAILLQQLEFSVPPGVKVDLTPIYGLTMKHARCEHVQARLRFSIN
# [9] = ZM109 Env clade C HIV-1 fusion inhibitors, dose response, HeLa effector, CEM target cells, luciferase, cherry-pick (AID 652058); format: functional, cell-based
# [10] = cytotoxicity in HEK-293T cells, dose response, cytotoxicity control for TCR NF-kB inhibitor project, luminescence, T-cell screen hits (AID 489026); format: functional, cell-based;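 further: cells exposed to compound about 14 hours before the viability readout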
# [11] = CEM21 lymphoblast cell cytotoxicity, dose response, cytotoxicity control for viral fusion inhibitor project, CellTiter-Glo luminescence, cherry-picked (AID 652042); format: functional, cell-based;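 further: potency for signal decrease meaning cytotoxicity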
# [12] = inhibitors of clade B AD8 Env fusion, dose response, cell-based, cherry-pick (AID 652062); format: functional;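 further: luciferase signal from cell-cell fusion driven by HIV-1 clade B AD8 Env; potency is for inhibitors of fusion seen as a drop in luminescence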
# [13] = inhibitors of HIV Env-driven cell fusion, dose response, cherry-pick (AID 652057); format: functional, cell-based
# [14] = HepG2 cell cytotoxicity, dose response, cytotoxicity control for Shn3 inhibitor project, CellTiter-Glo, cherry-picked (AID 624134); format: functional, cell-based
# [15] = off-target signal loss in HeLa-CEM21 co-culture – HeLa F-luc CTL cells, cherry-picked, counter-screen for HIV-1 Env fusion inhibitor project, dose response (AID 652040); format: functional, cell-based;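 further: potency for signal decrease marking cytotoxic or nonspecific inhibition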
# [16] = cells; format: functional, cell-based
# [17] = cytotoxicity toward NIH3T3 fibroblasts, dose response, counter-screen, cell-based, ATP luminescence, mouse fibroblasts (AID 2010); format: functional;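 further: cells exposed to compound for about 90 hours before reading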
# [18] = cells; format: functional, cell-based; remark: listed apart in the source
# [19] = system: INS1; assay: beta cell apoptosis inhibitors, cytokine rescue, dose response, luminescence, retest (AID 449756); format: functional, cell-based; settings: Rattus norvegicus;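 further: cell death triggered by IL-1 beta plus TNF-alpha plus IFN-gamma mixture; protective hits raise ATP signal compared with cytokine alone wells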
# [20] = inhibitors of intracellular T. cruzi replication, confirmation, NIH3T3 host cells, beta-gal luminescence (AID 2044); format: functional, cell-based;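 further: intracellular parasites grown in NIH/3T3 mouse fibroblasts as host cells; luminescent beta-galactosidase reporter signal from transgenic T. cruzi replicating inside host cells; inhibitors lower the luminescence signal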
# [21] = target: Cytochrome P450 2C19 (Homo sapiens, UniProt P33261); assay: Cytochrome panel assay with activity outcomes. Panel member name: p450-cyp2c19 Compounds with AC50 equal or less than 10 uM are considered active; format: functional; settings: read-out: AC50
# Chain of Cytochrome P450 2C19 (P33261 whole entry, the tested form may be a part): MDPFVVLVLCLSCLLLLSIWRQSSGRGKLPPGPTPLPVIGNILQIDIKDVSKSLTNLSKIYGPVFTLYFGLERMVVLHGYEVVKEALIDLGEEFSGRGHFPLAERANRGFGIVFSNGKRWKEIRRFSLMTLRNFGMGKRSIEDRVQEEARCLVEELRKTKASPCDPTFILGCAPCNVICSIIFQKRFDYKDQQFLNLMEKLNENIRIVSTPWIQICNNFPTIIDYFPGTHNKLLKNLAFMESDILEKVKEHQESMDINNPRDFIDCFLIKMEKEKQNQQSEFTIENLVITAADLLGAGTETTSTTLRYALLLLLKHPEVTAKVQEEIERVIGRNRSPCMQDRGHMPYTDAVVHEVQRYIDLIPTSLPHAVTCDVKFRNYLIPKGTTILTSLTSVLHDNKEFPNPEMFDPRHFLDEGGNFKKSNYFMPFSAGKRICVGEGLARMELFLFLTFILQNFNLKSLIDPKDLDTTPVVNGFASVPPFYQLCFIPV
# [22] = target: Fatty acid synthase (Homo sapiens, UniProt P49327); assay: FAS thioesterase domain inhibitors, dose response, biochemical, kinetic fluorescence intensity (AID 624326); format: functional;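 further: rate of fluorescence rise from hydrolysis of a fluorogenic O-methyl fluorescein ester substrate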
# Chain of Fatty acid synthase (P49327 whole entry, the tested form may be a part): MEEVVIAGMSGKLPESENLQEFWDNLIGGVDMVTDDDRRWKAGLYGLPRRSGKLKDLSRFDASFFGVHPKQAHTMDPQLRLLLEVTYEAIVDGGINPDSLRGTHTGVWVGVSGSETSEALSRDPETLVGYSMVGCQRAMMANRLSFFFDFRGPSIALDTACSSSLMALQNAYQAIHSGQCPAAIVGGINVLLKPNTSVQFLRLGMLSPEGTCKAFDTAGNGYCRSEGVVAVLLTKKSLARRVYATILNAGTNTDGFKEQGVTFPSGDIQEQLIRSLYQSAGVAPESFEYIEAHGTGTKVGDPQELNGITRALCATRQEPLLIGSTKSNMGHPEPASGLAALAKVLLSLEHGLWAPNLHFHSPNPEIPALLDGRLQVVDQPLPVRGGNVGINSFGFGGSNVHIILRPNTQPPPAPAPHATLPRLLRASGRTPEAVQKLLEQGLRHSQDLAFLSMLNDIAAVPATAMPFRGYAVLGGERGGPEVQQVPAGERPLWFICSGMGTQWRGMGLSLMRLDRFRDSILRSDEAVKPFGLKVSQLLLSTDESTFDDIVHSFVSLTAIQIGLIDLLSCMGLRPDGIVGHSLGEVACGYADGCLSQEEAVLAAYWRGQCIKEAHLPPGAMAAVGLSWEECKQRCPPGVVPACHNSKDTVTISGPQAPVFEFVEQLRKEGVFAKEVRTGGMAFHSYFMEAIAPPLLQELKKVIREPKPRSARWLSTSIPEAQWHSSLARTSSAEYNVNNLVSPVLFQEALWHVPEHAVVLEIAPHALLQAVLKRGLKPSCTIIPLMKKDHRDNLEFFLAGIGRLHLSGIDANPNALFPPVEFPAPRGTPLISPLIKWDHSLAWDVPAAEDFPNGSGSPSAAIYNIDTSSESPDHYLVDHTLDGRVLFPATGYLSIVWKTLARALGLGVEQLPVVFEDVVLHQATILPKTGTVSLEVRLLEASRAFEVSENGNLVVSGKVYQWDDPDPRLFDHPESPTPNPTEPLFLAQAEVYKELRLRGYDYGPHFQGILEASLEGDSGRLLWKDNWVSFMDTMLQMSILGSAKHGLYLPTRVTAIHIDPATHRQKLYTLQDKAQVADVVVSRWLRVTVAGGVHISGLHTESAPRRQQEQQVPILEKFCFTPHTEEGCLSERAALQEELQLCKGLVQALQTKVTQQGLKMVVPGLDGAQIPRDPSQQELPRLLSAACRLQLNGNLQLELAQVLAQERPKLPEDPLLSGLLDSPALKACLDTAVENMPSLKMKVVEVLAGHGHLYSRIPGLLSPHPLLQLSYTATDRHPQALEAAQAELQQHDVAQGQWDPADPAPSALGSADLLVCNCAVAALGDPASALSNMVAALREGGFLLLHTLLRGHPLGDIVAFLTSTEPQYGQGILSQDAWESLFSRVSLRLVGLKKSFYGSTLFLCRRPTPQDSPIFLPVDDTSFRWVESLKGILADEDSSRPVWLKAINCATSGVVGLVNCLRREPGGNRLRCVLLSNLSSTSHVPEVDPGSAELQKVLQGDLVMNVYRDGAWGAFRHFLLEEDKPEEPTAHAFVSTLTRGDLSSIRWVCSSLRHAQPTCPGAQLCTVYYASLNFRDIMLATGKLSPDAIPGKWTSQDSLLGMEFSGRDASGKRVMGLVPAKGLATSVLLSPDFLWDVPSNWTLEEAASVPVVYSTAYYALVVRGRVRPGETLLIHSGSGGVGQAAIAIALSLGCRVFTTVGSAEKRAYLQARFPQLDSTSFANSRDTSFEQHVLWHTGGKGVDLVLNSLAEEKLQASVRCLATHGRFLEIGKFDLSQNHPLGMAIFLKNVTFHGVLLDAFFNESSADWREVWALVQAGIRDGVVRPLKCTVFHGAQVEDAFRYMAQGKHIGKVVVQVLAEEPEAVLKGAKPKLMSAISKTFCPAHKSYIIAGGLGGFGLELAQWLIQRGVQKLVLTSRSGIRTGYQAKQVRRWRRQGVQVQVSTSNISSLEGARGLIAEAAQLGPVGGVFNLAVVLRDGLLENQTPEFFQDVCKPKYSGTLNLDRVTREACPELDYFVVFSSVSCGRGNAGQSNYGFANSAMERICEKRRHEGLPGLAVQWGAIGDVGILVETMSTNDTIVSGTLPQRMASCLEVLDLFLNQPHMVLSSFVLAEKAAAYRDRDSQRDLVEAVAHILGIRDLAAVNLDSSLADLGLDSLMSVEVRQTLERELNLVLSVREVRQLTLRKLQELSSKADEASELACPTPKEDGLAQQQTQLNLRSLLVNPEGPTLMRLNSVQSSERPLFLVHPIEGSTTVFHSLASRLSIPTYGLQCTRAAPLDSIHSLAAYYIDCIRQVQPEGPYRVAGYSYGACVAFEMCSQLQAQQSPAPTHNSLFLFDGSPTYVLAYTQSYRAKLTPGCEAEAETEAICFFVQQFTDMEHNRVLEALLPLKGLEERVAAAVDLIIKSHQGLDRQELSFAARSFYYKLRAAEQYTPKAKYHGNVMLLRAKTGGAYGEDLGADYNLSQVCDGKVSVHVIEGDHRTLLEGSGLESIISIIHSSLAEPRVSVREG
structure (smiles),measurement,setting,value
Cc1ccc(C(=O)NC(=S)Nc2ccccc2C(F)(F)F)c(C)c1,IC50,[1],> 100 µM (inactive)
CCCC(=O)N1CCN(c2ccc(NC(=O)c3cc4ccccc4o3)cc2)CC1,IC50,[1],> 100 µM (inactive)
COC(=O)C12OCC34C(CC5C(C)=C(O)C(=O)CC5(C)C3C(O)C1O)OC(=O)C(OC(=O)/C=C(\C)C(C)C)C24 (configuration not stated),AC50,[2],< 0.26 µM (active)
same,AC50,[3],< 0.26 µM (active)
same,AC50,[4],< 0.26 µM (active)
same,IC50,[1],42.7 µM (active)
CN1CCN(c2ccc(NC(=O)COc3cccc4ccccc34)cc2)CC1,EC50,[5],2.99 µM (active)
Cc1ccc(F)cc1-c1cc2nc(NCCCN(C)C)n(C)c(=O)c2s1,AC50,[6],19.2 µM (active)
CC(C)CCN1CC(C(=O)N2CCN(c3ccc(F)cc3)CC2)CC1=O (configuration not stated),AC50,[7],inconclusive
same,AC50,[8],0.251 µM (inconclusive)
O=C(Nc1ccc(N2CCN(C(=O)c3ccc(Cl)cc3)CC2)cc1)c1ccc2c(c1)OCCO2,AC50,[9],0.791 µM (active)
same,AC50,[2],2.54 µM (active)
same,IC50,[10],> 80 µM (inactive)
same,AC50,[11],47.7 µM (active)
same,AC50,[12],6.8 µM (active)
same,AC50,[4],7.89 µM (active)
same,AC50,[13],32.5 µM (active)
same,AC50,[14],1.96 µM (active)
CCCN(CCC)CCCNC(=O)C1CCC(CNS(=O)(=O)c2cccc3nsnc23)CC1 (configuration not stated),EC50,[5],0.531 µM (active)
C[C@H](CO)N1C[C@H](C)[C@H](CN(C)S(=O)(=O)c2cccc(C#N)c2)OCc2ccccc2-c2c(n(C)c3ccccc23)C1=O,AC50,[9],3.13 µM (active)
same,AC50,[11],46.1 µM (active)
same,AC50,[12],10.3 µM (active)
same,AC50,[13],0.726 µM (active)
NCCNC(=O)c1c(NC(=O)c2ccccc2)sc2c1CCCC2,EC50,[5],6.68 µM (active)
C[C@H]1CN([C@@H](C)CO)C(=O)Cc2cc(NC(=O)Nc3cccc4ccccc34)ccc2O[C@H]1CN(C)S(=O)(=O)c1ccccc1,AC50,[9],< 0.26 µM (active)
same,AC50,[11],33.8 µM (active)
same,AC50,[12],1.07 µM (active)
same,AC50,[13],< 0.26 µM (active)
O=C(CCS(=O)(=O)c1cccc2nsnc12)N1CCN(c2ccccc2F)CC1,IC50,[1],> 100 µM (inactive)
O=C(Nc1ccccc1)c1cc(-c2ccccc2Cl)no1,AC50,[7],inconclusive
CCN(CC)S(=O)(=O)c1cccc(NC(=O)c2ccc(-n3nc(C)cc3C)cc2)c1,AC50,[15],10.7 µM (active)
same,AC50,[11],49.7 µM (active)
same,AC50,[12],15.8 µM (active)
CC1(C)CC(CCNCc2ccc3c(c2)OCO3)(Cc2ccccc2)CCO1 (configuration not stated),EC50,[5],6.68 µM (active)
N=C(N)Nc1ccc2[nH]c3c(c2c1)C[C@@]1(O)[C@H]2Cc4ccc(O)c5c4[C@@]1(CCN2CC1CC1)[C@H]3O5,AC50,[6],8.43 µM (active)
COc1ccc(/C(C)=N/NC(=O)c2cccc(S(=O)(=O)N3CCCC3)c2)c(O)c1,EC50,[16],11.6 µM (active)
same,EC50,[17],3.07 µM (active)
same,EC50,[18],> 350 µM (not active)
same,AC50,[11],3.55 µM (active)
same,AC50,[12],17.4 µM (active)
same,AC50,[19],0.631 µM (active)
same,EC50,[20],1.05 µM (active)
CCn1nccc1C(=O)Nc1ccc(Cl)c(Cl)c1,IC50,[1],43.4 µM (active)
OC1CC2CCC(C1)N2CCCN1c2ccccc2Sc2ccc(Cl)cc21 (configuration not stated),AC50,[6],12.9 µM (active)
COCCCNC(=O)/C=C/c1cccc(Cl)c1,AC50,[7],inconclusive
same,AC50,[21],15.8 µM (inconclusive)
O=C(C[C@H]1C[C@H](C(=O)N2CCOCC2)[C@@]2(CCC3CCCC3)c3[nH]c4cc(-c5ccco5)ccc4c3CCN2C1=O)NCCc1ccccn1,IC50,[22],7.01 µM (active)

# Reference: ChEMBL document CHEMBL1201862, “PubChem BioAssay data set” (2004)
